Reference: US20110038885A1, “CHEMOKINE ANALOGS” (priority 2007, published 2011)
Bridge positions count the residues as written; N and C are the ends. Square brackets hold non-standard residues; d marks the D form. Peptide text beside a SMILES is read from it. * marks the point of attachment. Isobutyryl = CC(C)C(=O)*; Orn = NCCC[C@H](N)C(=O)O; dDap = NC[C@@H](N)C(=O)O; Dab = NCC[C@H](N)C(=O)O; Butyryl = CCCC(=O)*; βAla = NCCC(=O)O

Tests used:
MCP-1 = assay: In vitro chemotaxis (trans-well migration) v MCP-1; assay type: cell-based, human
Summary of the method: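 Trans-well migration toward IL-8 or MCP-1 placed below, with agent added to THP-1 cells (10^4-10^6) in the top well and incubation at 37° C (e.g. 4 hours). MTT absorbance at 595 nm, interpolated on a cell standard curve, gives migrated cell numbers; TGFβ-type negative control and cytotoxicity check included.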

IL-8 = assay: In vitro chemotaxis, inhibition v IL-8; assay type: cell-based, human; set-up: concentration or dose not given beside the values
Protocol: To determine whether an agent inhibits a chemokine-induced activity, such as macrophage recruitment, varying amounts of the agent are mixed with cells in the presence of a known chemoattractant. For example, a range of known concentrations of an agent, e.g., a chemokine peptide, is incubated with a defined number (e.g., 10^4-10^6) of human THP-1 monocyte cells in individual wells of the top compartment of a trans-well plate. Chemokine, at a concentration known to cause significant migration of THP-1 cells in the trans-well migration assay, is placed in the lower compartment of a trans-well plate. Cells are then incubated at 37° C. for a period sufficient to allow migration, e.g., 4 hours. After incubation, the cells are gently removed from the top of the filter with a pipette, 20 μl of 20 mM EDTA in simple PBS is added into each top well, and incubated for 20 minutes at 4° C. The filter is carefully flushed with media using a gentle flow, and removed. A standard curve consisting of a two-fold dilution series of THP-1 cells (in 29 μl) is placed to accurately quantify the number of cells that have migrated. Migrated cells are stained with 3 μl of MTT stock dye solution which is added directly into each well (5 mg/ml in RPMI-1640 without phenol red) (Sigma Chemical Co., St. Louis, Mo., USA) and incubated at 37° C. for 4 hours. The media is carefully aspirated from each well, and the converted dye is solubilized by 20 μl of DMSO. Absorbance of converted dye is measured at a wavelength of 595 nm using an ELISA plate reader. The number of migrated cells in each well is then determined by interpolation of the standard curve (see also Imai et al., J. Biol. Chem., 272:15036, 1997). Any method suitable for counting cells can be used, for example, counting with a hemocytometer, incubation of the cells with MTT (see above), or FACS analysis. A negative control assay is also performed, using TGFβ or another non-chemokine chemoattractant (e.g., IL1β or TNFα). To assess whether the agent is cytotoxic, the same concentrations of agent are incubated with THP-1 cells. Agents which 1) are not cytotoxic at levels which inhibit migration, 2) are ineffective at inhibiting the negative control-induced migration, and 3) reduce or inhibit chemokine-induced THP-1 migration, are agents which fall within the scope of the invention.

| Molecule | EC50 (MCP-1) [nM] | v IL-8 inhibition (%) (IL-8) |
| --- | --- | --- |
| CC[C@H](C)[C@@H]1NC(=O)[C@H](Cc2c[nH]c3ccccc23)NC(=O)[C@H](CCCCN)NC(=O)[C@H](CCC(N)=O)NC(=O)[C@H](CCCCN)NC(=O)[C@@H]2CCCN2C(=O)[C@H](CC(=O)O)NC(=O)[C@@H](NC(=O)[C@@H](N)CC(C)C)CSSC[C@@H](C(N)=O)NC(=O)[C@H](CCC(N)=O)NC1=O [Example 10, Leu-c(Cys-Asp-Pro-Lys-Gln-Lys-Trp-Ile-Gln-Cys)-NH2] (H-LCDPKQKWIQC-NH2; disulfide 2-11) | 10 | 102.2 |
| CC[C@H](C)[C@@H]1NC(=O)[C@H](Cc2c[nH]c3ccccc23)NC(=O)[C@H](CCCCN)NC(=O)[C@H](CCC(N)=O)NC(=O)[C@H](CCCCN)NC(=O)[C@@H]2CCCN2C(=O)[C@@H](NC(=O)[C@H](CC(=O)O)NC(=O)[C@@H](N)CC(C)C)CSSC[C@@H](C(N)=O)NC(=O)[C@H](CCC(N)=O)NC1=O [Example 11, Leu-Asp-c(Cys-Pro-Lys-Gln-Lys-Trp-Ile-Gln-Cys)-NH2] (H-LDCPKQKWIQC-NH2; disulfide 3-11) | 330 | 38.1 |
| CC[C@H](C)[C@@H]1NC(=O)[C@H](Cc2c[nH]c3ccccc23)NC(=O)[C@H](CCCCN)NC(=O)[C@@H](NC(=O)[C@H](CCC(N)=O)NC(=O)[C@H](CCCCN)NC(=O)[C@@H]2CCCN2C(=O)[C@H](CC(=O)O)NC(=O)[C@@H](N)CC(C)C)CSSC[C@@H](C(N)=O)NC(=O)[C@H](CCC(N)=O)NC1=O [Example 12, Leu-Asp-Pro-Lys-Gln-c(Cys-Lys-Trp-Ile-Gln-Cys)-NH2] (H-LDPKQCKWIQC-NH2; disulfide 6-11) | 50 | 94.8 |
| CC[C@H](C)[C@@H]1NC(=O)[C@H](Cc2c[nH]c3ccccc23)NC(=O)[C@@H](NC(=O)[C@H](CCCCN)NC(=O)[C@H](CCC(N)=O)NC(=O)[C@H](CCCCN)NC(=O)[C@@H]2CCCN2C(=O)[C@H](CC(=O)O)NC(=O)[C@@H](N)CC(C)C)CSSC[C@@H](C(N)=O)NC(=O)[C@H](CCC(N)=O)NC1=O [Example 13, Leu-Asp-Pro-Lys-Gln-Lys-c(Cys-Trp-Ile-Gln-Cys)-NH2] (H-LDPKQKCWIQC-NH2; disulfide 7-11) | 8000 | 5.8 |
| CC[C@H](C)[C@@H]1NC(=O)[C@@H](NC(=O)[C@H](Cc2c[nH]c3ccccc23)NC(=O)[C@H](CCCCN)NC(=O)[C@H](CCC(N)=O)NC(=O)[C@H](CCCCN)NC(=O)[C@@H]2CCCN2C(=O)[C@H](CC(=O)O)NC(=O)[C@@H](N)CC(C)C)CSSC[C@@H](C(N)=O)NC(=O)[C@H](CCC(N)=O)NC1=O [Example 14, Leu-Asp-Pro-Lys-Gln-Lys-Trp-c(Cys-Ile-Gln-Cys)-NH2] (H-LDPKQKWCIQC-NH2; disulfide 8-11) | 2000 | 10.5 |
| CC[C@H](C)[C@@H]1NC(=O)[C@@H](NC(=O)[C@H](Cc2c[nH]c3ccccc23)NC(=O)[C@@H](N)CCCCN)CSSC[C@@H](C(N)=O)NC(=O)[C@H](CCC(N)=O)NC1=O [Example 15, Lys-Trp-c(Cys-Ile-Gln-Cys)-NH2] (H-KWCIQC-NH2; disulfide 3-6) | 3000 | 10.5 |
| CC[C@H](C)[C@@H]1NC(=O)[C@H](Cc2c[nH]c3ccccc23)NC(=O)[C@H](CCCCN)NC(=O)[C@H](CCC(N)=O)NC(=O)[C@H](CCCCN)NC(=O)[C@@H]2CCCN2C(=O)[C@H](CC(=O)O)NC(=O)[C@H](CC(C)C)NC(=O)[C@@H](NC(C)=O)CSSC[C@@H](C(=O)N[C@H](CN)C(N)=O)NC(=O)[C@H](CCC(N)=O)NC1=O [Example 16, Ac-c(Cys-Leu-Asp-Pro-Lys-Gln-Lys-Trp-Ile-Gln-Cys)-D-Dap-NH2] (Ac-CLDPKQKWIQC[dDap]-NH2; disulfide 1-11) | 800 | 19.8 |
| CC[C@H](C)[C@@H]1NC(=O)[C@H](Cc2c[nH]c3ccccc23)NC(=O)[C@H](CCCCN)NC(=O)[C@H](CCC(N)=O)NC(=O)[C@H](CCCCN)NC(=O)[C@@H]2CCCN2C(=O)[C@H](CC(=O)O)NC(=O)[C@H](CC(C)C)NC(=O)[C@@H](NC(=O)[C@H](CC(=O)O)NC(C)=O)CSSC[C@@H](C(=O)N[C@H](CN)C(N)=O)NC(=O)[C@H](CCC(N)=O)NC1=O [Example 17, Ac-Asp-c(Cys-Leu-Asp-Pro-Lys-Gln-Lys-Trp-Ile-Gln-Cys)-D-Dap-NH2] (Ac-DCLDPKQKWIQC[dDap]-NH2; disulfide 2-12) | > 1000 | 15.5 |
| CC[C@H](C)[C@@H]1NC(=O)[C@H](Cc2c[nH]c3ccccc23)NC(=O)[C@H](CCCCN)NC(=O)[C@H](CCC(N)=O)NC(=O)[C@H](CCCCN)NC(=O)[C@@H]2CCCN2C(=O)[C@H](CC(=O)O)NC(=O)[C@H](CC(C)C)NC(=O)[C@@H](NC(C)=O)CSSC[C@@H](C(=O)N[C@@H](CCN)C(N)=O)NC(=O)[C@H](CCC(N)=O)NC1=O [Example 18, Ac-c(Cys-Leu-Asp-Pro-Lys-Gln-Lys-Trp-Ile-Gln-Cys)-Dab-NH2] (Ac-CLDPKQKWIQC[Dab]-NH2; disulfide 1-11) | 20 | 103.5 |
| CC[C@H](C)[C@@H]1NC(=O)[C@H](Cc2c[nH]c3ccccc23)NC(=O)[C@H](CCCCN)NC(=O)[C@H](CCC(N)=O)NC(=O)[C@@H](NC(=O)[C@H](CCCCN)NC(=O)[C@@H]2CCCN2C(=O)[C@H](CC(=O)O)NC(=O)[C@H](CC(C)C)NC(C)=O)CSSC[C@@H](C(N)=O)NC(=O)[C@H](CCC(N)=O)NC1=O [Example 22, Ac-Leu-Asp-Pro-Lys-c(Cys-Gln-Lys-Trp-Ile-Gln-Cys)-NH2] (Ac-LDPKCQKWIQC-NH2; disulfide 5-11) | 900 | 16.8 |
| CC[C@@H](C)[C@H]1NC(=O)[C@@H](CCC(N)=O)NC(=O)[C@H](NC(C)=O)CSSC[C@H](C(N)=O)NC(=O)[C@@H](CC(C)C)NC(=O)[C@@H](CC(=O)O)NC(=O)[C@H]2CCCN2C(=O)[C@@H](CCCCN)NC(=O)[C@@H](CCC(N)=O)NC(=O)[C@@H](CCCCN)NC(=O)[C@@H](Cc2c[nH]c3ccccc23)NC1=O [Example 198, Ac-c(D-Cys-D-Gln-D-Ile-D-Trp-D-Lys-D-Gln-D-Lys-D-Pro-D-Asp-D-Leu-D-Cys)-NH2] (Ac-[dC][dQ][dI][dW][dK][dQ][dK][dP][dD][dL][dC]-NH2; disulfide 1-11) | 20 |  |
| CC[C@@H](C)[C@H]1NC(=O)[C@@H](CCC(N)=O)NC(=O)CCNC(=O)C[C@H](C(N)=O)NC(=O)[C@@H](CC(C)C)NC(=O)[C@@H](CC(=O)O)NC(=O)[C@H]2CCCN2C(=O)[C@@H](CCCCN)NC(=O)[C@@H](CCC(N)=O)NC(=O)[C@@H](CCCCN)NC(=O)[C@@H](Cc2c[nH]c3ccccc23)NC1=O [Example 199, c(βAla-D-Gln-D-Ile-D-Trp-D-Lys-D-Gln-D-Lys-D-Pro-D-Asp-D-Leu-D-Asp)-NH2] ([βAla][dQ][dI][dW][dK][dQ][dK][dP][dD][dL][dD]-NH2; lactam N-11) | 20 |  |
| CCCC(=O)N[C@@H]1CSSC[C@H](C(N)=O)NC(=O)[C@@H](CCCCN)NC(=O)[C@@H](Cc2c[nH]c3ccccc23)NC(=O)[C@@H](C(C)C)NC(=O)[C@@H](CCC(N)=O)NC1=O [Example 200, Butanyl-c(D-Cys-D-Gln-D-Val-D-Trp-D-Lys-D-Cys)-NH2] (Butyryl-[dC][dQ][dV][dW][dK][dC]-NH2; disulfide 1-6) | 30 |  |
| CC[C@H](C)[C@H](NC(=O)[C@H](Cc1c[nH]c2ccccc12)NC(=O)[C@H](CCCCN)NC(=O)[C@H](CC(=O)O)NC(=O)C(C)C)C(=O)N[C@@H](CCC(N)=O)C(=O)N[C@@H](CCCCN)C(N)=O [Example 201, Isobutyryl-Asp-Lys-Trp-Ile-Gln-Lys-NH2] (Isobutyryl-DKWIQK-NH2) | 10 |  |
| CC[C@H](C)[C@H](NC(=O)[C@H](Cc1c[nH]c2ccccc12)NC(=O)[C@H](CCCCN)NC(=O)[C@H](CCCN)NC(=O)C(C)C)C(=O)N[C@@H](CCC(N)=O)C(=O)N[C@@H](CC(=O)O)C(N)=O [Example 202, Isobutyryl-Orn-Lys-Trp-Ile-Gln-Asp-NH2] (Isobutyryl-[Orn]KWIQD-NH2) | 8 |  |
| [aminoPeg10-oxaglutaryl]2-c(D-Cys-D-Gln-D-Ile-D-Trp-D-Lys-D-Gln-D-Lys-D-Pro-D-Asp-D-Leu-D-Cys)-NH2 [Example 186] | 20 |  |
| [aminoPeg10-oxaglutaryl]-c(D-Cys-D-Gln-D-Ile-D-Trp-D-Lys-D-Gln-D-Lys-D-Pro-D-Asp-D-Leu-D-Cys)-NH2 [Example 187] | 66 |  |
